# Bridge positions count the residues as written; N and C are the ends. Ends that are not written are not given here. * marks the point of attachment. FITC = O=C1OC2(c3ccc(O)cc3Oc3cc(O)ccc32)c2ccc(NC(=S)*)cc21; βAla = NCCC(=O)O
# Tested on: receptors on surface of 3T3 fibroblasts
# Assay: Binding of fluorescence-labeled peptide to receptors on fibroblasts
# Details: 1 mg/ml, 1 hr incubation, fluorescence and optical microscopy
# Description: 3T3 fibroblasts were cultured in 250 ml-flasks containing EMEM (Eagle's minimal essential media, Gibco, U.S.A.) supplemented with […] FBS (fetal bovine serum). After 48-hr culture, the supernatant of the medium was discarded and the remainder was washed once with PBS (phosphate buffered saline). FITC-b-Ala-CDLRRLEMYC prepared in Preparation Example 4 was dissolved in DMSO and PBS to a concentration of 1 mg/ml and incubated for 1 hr with cells cultured. After removing medium, cells were completely washed and their surface was observed under fluorescence and optical microscopes.
substance,measurement,value
FITC-b-Ala-Cys-Asp-Leu-Arg-Arg-Leu-Glu-Met-Tyr-Cys ({FITC-βAla}-CDLRRLEMYC; disulfide 1-10) [FITC-labeled peptide],binding of the FITC-labeled peptide to receptors on cell (FIG. 12),binds to receptors on surface of fibroblasts

# Reference: patent US8263095B2, “Methods of use for peptides having activities of insulin like growth factor-1” (Caregen Co., Ltd., priority 2006, dated 2012)
